The text below walks through data of patent US7868139B2, “Compositions and methods for the identification and treatment of immune-mediated inflammatory diseases” (UAB Research Foundation, priority 2006, dated 2011).

“Also recorded” adds a separate entry of the source. Peptide text beside a SMILES is read from it. * marks the point of attachment. Cbz = O=C(OCc1ccccc1)*; OtBu = CC(C)(C)O*

Experiment [1] relates to BMDC. The experiment is described as follows: Maturation of LPS-stimulated BMDC (costimulatory molecules, cytokines). Format: cell-based, mouse. To be noted: PSI-pulsed BMDC stimulated with LPS.
Experiment [2] concerns DO11.10 CD4^+ T cells. Briefly: T cell cytokine assays (ELISA of culture supernatants). To be noted: PSI-pretreated, OVA peptide-pulsed BMDC. Format: cell-based, mouse. On the procedure:
[…] The culture supernatants (SN) were collected at different times and pooled together for assay. SN collected after 24 hr of culture were used for IL-2 assay and SN collected at 72 h of culture were used for IL-10, IL-4, and IFNγ assays. The cytokine content in SN was determined by ELISA as previously described by Cong et al. (Cong et al., CD4+ T cells reactive to enteric bacterial antigens in spontaneously colitic C3H/HeJBir mice: increased T helper cell type 1 response and ability to transfer disease. Journal of Experimental Medicine 187:855 (1998).

Experiment [3] concerns DO11.10.RAG2−/− CD4^+ T cells. Briefly: T cell proliferation assay with PSI-pretreated, OVA peptide-pulsed BMDC. Format: cell-based, mouse. To be noted: BMDC pretreated with 1 μM PSI 4 hrs, then OVA peptide 20 hrs; p<0.005. As for the experimental part: Generation of PSI-APC Treg cells—BMDC generated from BALB/c mice were treated with 1 μM PSI dissolved in DMSO for 4 hrs and then 5 μg/ml OVA peptide for additional 20 hrs at 1×10^6/ml. After washing twice, the pretreated BMDC were added at 1×10^5/ml into cultures of 1×10^6 freshly isolated CD4^+ T cells from DO11.10.RAG2^−/− mice. Seven days later, the CD4^+ T cells were re-isolated with CD4-magnet beads (Pharmingen, San Diego, Calif.) and used to test for regulatory activity (PSI-APC Treg). Freshly isolated CD4^+ T cells from DO11.10.RAG2^−/− mice were also cultured with 5 μg/ml OVA peptide-pulsed BMDC as control, and used as memory T cells (Them).
After 4 d of incubation, 0.5 μCi of ^3H-thymidine was added to each culture for the last 18 hr of the incubation period. The cells were harvested on glass fiber filters on a PHD cell harvested (Cambridge Technology, Watertown, Mass.) and proliferation was assessed as the amount of incorporation of ^3H-thymidine into cell DNA, as measured by beta scintillation counting of the harvested samples. Data are expressed as CPM±SD.

The subject of experiment [4] is NF-κB p65. The experiment is described as follows: Measurement of nuclear NF-κB p65 in BMDC. The following applies: 1 μg/ml LPS plus 1 μM PSI for 60 min, compared to control. Format: cell-based, mouse. As for the experimental part:
Measurement of nuclear NF-κB—BMDC were treated with media alone, 1 μg/ml LPS, or LPS plus 1 μM PSI for 60 min. The nuclear extracts were made by using TransFactor Extraction Kit (Clontech Laboratories, Inc., Palo Alto, Calif.) based on the protocol recommended by the manufacturer. NF-κB p65 was measured by using Mercury TransFactor Kits (Clontech Labs, Inc., Palo Alto, Calif.) according to manufacturer's protocol.

For experiment [5], the system named is mice. To be noted: mouse, in vivo.
Experiment [6] relates to Splenic CD4^+ T cells. The experiment is described as follows: Antigen-specific proliferation of splenic CD4+ T cells (3H-thymidine). The experiment is classed as cell-based, mouse.

For `CC[C@H](C)[C@H](NC(=O)OCc1ccccc1)C(=O)N[C@@H](CCC(=O)OC(C)(C)C)C(=O)N[C@@H](C)C(=O)N[C@H](C=O)CC(C)C` [PSI, benzyloxycarbonyl-isoleucyl-glutamyl(O-tert-butyl)-alanyl-leucinal] (Cbz-IE(OtBu)AL-aldehyde), in experiment [1], the “IL-10 production by BMDC” value is “not affected”; the IL-12p70 cytokine production entry was “did not upregulate”; the “expression of costimulatory molecules CD40, CD86 and MHC class II” value is reported as “did not upregulate”. In experiment [2], the “T cell IL-4 production” value is “no IL-4 production”, the “reduction of T cell IFNα production” value was found to be 81%, the “reduction of T cell IL-2 production” value amounted to 89% and the “reduction of T cell IL-10 production” value stood at 79%. Besides, the “naïve CD4+ T cell proliferation to OVA peptide-pulsed BMDC” value in experiment [3] is “inhibited T cell proliferation and cytokine production; also recorded: greatly decreased”. Besides, in experiment [4], the “NF-κB p65 in nuclear extracts” value is “inhibited BMDC NF-κβ activation; also recorded: reduced levels of NF-κB p65”.

In the case of cholera toxin [CT], in experiment [5], the “intestinal IgA response to OVA” value is “strong intestinal IgA response” and the “serum IgG response to OVA” value is given as “strong serum IgG response to OVA”.

B1: ovalbumin (protein, UniProt P01012 2-386, looked up)
Ovalbumin: GSIGAASMEFCFDVFKELKVHHANENIFYCPIAIMSALAMVYLGAKDSTRTQINKVVRFDKLPGFGDSIEAQCGTSVNVHSSLRDILNQITKPNDVYSFSLASRLYAEERYPILPEYLQCVKELYRGGLEPINFQTAADQARELINSWVESQTNGIIRNVLQPSSVDSQTAMVLVNAIVFKGLWEKAFKDEDTQAMPFRVTEQESKPVQMMYQIGLFRVASMASEKMKILELPFASGTMSMLVLLPDEVSGLEQLESIINFEKLTEWTSSNVMEERKIKVYLPRMKMEEKYNLTSVLMAMGITDVFSSSANLSGISSAESLKISQAVHAAHAEINEAGREVVGSAEAGVDAASVSEEFRADHPFLFCIKHIATNAVLFFGRCVSP
notes: internal positive control antigen; exogenous foreign neoantigen
Regarding B1, in experiment [5], the “intestinal IgA response to OVA” value is listed as “virtually no intestinal IgA to OVA” and the “serum IgG response to OVA” value is “no serum IgG response to OVA”. Further, in experiment [6] (post immunization (day 35), 50 μg/ml antigen), the median stimulation index amounted to 17.1. In addition, the “T cell proliferative response, stimulation index (SI)” value in experiment [6] (unimmunized mice) is below 3.
